Like-named read-outs stand apart in the source and are kept apart here.
Experiments:
Experiment in all cases: Kinase profile (33P ATP filter binding)
Format in all cases: biochemical
Aurora B = Aurora B (Homo sapiens, UniProt Q96GD4); details: read-out: Remaining protein kinase activity
MARK2 = MARK2 (Homo sapiens, UniProt Q7KZI7); details: read-out: Remaining protein kinase activity
PAK5 = PAK5 (Homo sapiens, UniProt Q9P286); details: read-out: Remaining protein kinase activity
AMPK (hum) = AMPK (hum) (Homo sapiens, UniProt Q13131); details: read-out: Remaining protein kinase activity
Sequence of AMPK (hum) (Q13131 whole entry): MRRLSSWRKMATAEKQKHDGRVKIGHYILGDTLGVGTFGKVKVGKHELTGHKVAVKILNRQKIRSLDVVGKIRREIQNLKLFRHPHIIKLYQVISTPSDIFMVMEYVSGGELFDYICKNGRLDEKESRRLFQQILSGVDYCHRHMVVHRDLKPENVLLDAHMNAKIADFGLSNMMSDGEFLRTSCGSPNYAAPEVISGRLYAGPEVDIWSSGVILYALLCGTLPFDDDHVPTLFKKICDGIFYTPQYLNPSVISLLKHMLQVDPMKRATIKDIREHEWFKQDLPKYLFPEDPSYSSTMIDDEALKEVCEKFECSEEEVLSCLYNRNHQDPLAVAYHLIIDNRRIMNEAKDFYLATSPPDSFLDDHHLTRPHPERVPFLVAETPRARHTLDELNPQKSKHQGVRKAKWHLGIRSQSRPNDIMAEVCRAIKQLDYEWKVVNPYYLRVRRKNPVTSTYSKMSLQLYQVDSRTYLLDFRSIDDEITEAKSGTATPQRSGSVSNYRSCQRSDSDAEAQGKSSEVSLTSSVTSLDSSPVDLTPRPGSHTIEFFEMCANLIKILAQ
Sequence of AMPK (hum) (O43741 whole entry partner): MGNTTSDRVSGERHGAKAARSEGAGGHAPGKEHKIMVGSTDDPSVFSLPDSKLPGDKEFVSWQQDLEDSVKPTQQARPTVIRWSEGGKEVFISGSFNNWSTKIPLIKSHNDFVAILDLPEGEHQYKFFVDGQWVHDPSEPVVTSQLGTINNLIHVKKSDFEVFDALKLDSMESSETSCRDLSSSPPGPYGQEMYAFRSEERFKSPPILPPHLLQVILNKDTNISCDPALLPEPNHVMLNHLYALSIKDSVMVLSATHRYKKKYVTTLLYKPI
Sequence of AMPK (hum) (P54619 whole entry partner): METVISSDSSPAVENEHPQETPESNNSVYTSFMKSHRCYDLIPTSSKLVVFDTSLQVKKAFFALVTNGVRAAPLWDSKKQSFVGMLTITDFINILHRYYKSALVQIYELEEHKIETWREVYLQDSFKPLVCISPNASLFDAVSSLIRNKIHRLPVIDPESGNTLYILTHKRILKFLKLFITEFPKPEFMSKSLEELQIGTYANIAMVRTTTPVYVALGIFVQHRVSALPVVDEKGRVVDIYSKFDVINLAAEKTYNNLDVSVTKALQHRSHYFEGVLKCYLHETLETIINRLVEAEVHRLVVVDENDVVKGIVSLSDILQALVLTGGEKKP

SGK1 = target: T1, SGK1 (Homo sapiens, UniProt O00141); details: read-out: Remaining protein kinase activity
T1 sequence (O00141 1-431): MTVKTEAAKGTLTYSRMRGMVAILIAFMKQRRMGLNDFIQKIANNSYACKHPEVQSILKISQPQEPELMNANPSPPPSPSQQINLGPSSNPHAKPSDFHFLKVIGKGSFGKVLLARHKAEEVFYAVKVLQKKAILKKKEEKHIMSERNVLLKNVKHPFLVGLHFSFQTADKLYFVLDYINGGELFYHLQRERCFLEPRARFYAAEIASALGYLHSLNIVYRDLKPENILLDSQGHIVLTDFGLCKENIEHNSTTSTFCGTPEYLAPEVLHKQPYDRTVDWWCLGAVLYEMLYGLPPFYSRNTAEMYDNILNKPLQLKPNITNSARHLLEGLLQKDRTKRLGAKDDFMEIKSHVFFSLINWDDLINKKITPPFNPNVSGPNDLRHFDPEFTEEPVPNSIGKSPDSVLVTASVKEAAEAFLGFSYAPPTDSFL

ULK1 = target: T2, ULK1 (Homo sapiens, UniProt O75385)
T2 sequence (O75385 1-1050): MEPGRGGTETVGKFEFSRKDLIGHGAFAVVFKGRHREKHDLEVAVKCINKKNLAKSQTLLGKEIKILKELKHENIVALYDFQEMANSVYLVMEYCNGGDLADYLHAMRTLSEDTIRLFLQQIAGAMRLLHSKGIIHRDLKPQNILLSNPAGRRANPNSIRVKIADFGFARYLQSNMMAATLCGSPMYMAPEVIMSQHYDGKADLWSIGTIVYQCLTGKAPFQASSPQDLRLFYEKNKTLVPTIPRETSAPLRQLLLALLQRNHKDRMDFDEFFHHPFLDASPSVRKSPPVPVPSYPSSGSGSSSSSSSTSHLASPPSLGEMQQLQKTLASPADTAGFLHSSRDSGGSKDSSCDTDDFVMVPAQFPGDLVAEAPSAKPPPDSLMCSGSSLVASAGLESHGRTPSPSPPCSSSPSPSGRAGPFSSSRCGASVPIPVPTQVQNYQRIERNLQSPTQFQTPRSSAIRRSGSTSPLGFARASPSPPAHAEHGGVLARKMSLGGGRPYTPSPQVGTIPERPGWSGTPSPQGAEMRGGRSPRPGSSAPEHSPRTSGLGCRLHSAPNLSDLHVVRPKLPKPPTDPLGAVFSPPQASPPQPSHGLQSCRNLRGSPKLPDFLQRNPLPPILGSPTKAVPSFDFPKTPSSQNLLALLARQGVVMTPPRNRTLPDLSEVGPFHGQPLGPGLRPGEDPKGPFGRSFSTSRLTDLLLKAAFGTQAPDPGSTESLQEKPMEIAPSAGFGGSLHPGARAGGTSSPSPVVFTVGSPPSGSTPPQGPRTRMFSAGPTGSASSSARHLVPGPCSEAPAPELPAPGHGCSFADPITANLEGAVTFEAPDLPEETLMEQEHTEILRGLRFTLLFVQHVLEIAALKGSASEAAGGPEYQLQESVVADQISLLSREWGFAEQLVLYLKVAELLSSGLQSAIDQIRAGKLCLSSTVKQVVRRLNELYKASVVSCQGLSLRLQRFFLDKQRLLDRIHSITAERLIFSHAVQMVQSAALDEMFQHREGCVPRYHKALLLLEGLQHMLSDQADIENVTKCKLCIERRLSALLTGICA

CDK9-Cyclin T1 = CDK9-Cyclin T1 (Homo sapiens, UniProt P50750); details: read-out: Remaining protein kinase activity
TTBK2 = TTBK2 (Homo sapiens, UniProt Q6IQ55)
VEG-FR = VEG-FR (Homo sapiens, UniProt P17948); details: read-out: Remaining protein kinase activity
Sequence of VEG-FR (P17948 27-1338): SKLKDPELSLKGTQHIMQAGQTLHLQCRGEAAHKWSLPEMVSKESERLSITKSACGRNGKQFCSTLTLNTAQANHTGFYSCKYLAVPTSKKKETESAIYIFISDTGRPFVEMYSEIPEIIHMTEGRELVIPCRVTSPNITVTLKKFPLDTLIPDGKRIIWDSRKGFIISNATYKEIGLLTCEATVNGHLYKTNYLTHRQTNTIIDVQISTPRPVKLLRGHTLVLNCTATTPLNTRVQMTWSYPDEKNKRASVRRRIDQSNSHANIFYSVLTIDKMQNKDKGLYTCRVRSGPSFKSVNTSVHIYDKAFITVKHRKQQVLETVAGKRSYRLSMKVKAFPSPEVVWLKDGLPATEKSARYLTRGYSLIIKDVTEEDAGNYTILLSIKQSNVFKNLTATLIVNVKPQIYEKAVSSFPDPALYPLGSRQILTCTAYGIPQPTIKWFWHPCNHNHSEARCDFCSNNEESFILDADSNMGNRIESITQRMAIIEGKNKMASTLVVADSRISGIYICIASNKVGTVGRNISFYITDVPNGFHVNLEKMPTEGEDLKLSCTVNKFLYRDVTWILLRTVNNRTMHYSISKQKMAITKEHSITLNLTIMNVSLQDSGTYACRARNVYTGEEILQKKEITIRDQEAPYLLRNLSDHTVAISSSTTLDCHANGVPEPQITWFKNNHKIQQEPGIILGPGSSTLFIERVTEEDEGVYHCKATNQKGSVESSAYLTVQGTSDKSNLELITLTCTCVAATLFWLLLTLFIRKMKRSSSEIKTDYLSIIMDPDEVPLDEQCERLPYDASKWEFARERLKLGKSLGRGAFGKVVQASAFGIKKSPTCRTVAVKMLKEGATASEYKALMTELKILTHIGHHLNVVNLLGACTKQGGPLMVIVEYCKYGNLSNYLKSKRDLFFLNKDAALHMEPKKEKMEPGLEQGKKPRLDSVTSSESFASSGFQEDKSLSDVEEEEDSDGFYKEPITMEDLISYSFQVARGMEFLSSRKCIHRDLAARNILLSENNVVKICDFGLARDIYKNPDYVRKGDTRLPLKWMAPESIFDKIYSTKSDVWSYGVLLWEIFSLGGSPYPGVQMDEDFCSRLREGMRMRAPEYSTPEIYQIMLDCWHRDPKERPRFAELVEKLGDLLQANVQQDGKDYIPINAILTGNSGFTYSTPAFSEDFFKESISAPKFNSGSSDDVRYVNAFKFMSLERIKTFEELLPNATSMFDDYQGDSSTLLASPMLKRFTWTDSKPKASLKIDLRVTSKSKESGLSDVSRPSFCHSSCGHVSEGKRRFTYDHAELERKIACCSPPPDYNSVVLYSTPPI

CSK = CSK (Homo sapiens, UniProt P41240)
Sequence of CSK (P41240 whole entry): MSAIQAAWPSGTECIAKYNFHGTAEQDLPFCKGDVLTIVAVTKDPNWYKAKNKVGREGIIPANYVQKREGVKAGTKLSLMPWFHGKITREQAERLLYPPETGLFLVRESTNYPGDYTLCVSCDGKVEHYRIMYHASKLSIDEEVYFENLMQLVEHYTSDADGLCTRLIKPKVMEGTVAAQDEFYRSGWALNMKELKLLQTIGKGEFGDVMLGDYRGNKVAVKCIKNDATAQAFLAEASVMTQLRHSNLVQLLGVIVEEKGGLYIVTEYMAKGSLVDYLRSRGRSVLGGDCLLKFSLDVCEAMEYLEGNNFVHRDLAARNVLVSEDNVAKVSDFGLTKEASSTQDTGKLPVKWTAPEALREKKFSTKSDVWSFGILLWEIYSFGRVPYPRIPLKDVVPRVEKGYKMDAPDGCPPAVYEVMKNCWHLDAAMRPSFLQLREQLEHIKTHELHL

MNK2 = MNK2 (Homo sapiens, UniProt Q9HBH9); details: read-out: Remaining protein kinase activity

Sequence of MARK2 (Q7KZI7 whole entry): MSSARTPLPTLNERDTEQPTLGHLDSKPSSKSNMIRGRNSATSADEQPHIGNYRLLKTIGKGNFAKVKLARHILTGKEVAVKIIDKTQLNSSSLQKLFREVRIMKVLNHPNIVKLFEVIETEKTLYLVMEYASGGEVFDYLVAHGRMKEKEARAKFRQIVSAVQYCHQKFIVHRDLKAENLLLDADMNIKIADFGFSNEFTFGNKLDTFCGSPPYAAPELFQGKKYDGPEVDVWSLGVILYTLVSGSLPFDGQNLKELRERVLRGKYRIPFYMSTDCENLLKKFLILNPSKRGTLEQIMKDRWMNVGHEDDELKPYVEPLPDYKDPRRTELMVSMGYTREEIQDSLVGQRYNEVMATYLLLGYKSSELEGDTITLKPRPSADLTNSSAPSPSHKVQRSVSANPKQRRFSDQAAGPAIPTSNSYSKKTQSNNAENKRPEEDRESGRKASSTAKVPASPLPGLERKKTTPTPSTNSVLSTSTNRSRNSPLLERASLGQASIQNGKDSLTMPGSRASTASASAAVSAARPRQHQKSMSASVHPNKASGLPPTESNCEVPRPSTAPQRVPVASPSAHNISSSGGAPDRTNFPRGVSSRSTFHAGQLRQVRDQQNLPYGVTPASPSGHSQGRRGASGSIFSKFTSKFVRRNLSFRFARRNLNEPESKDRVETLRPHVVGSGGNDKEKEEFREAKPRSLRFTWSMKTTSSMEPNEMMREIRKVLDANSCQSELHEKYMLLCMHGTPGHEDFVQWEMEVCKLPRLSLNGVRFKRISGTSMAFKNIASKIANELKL
Sequence of PAK5 (Q9P286 whole entry): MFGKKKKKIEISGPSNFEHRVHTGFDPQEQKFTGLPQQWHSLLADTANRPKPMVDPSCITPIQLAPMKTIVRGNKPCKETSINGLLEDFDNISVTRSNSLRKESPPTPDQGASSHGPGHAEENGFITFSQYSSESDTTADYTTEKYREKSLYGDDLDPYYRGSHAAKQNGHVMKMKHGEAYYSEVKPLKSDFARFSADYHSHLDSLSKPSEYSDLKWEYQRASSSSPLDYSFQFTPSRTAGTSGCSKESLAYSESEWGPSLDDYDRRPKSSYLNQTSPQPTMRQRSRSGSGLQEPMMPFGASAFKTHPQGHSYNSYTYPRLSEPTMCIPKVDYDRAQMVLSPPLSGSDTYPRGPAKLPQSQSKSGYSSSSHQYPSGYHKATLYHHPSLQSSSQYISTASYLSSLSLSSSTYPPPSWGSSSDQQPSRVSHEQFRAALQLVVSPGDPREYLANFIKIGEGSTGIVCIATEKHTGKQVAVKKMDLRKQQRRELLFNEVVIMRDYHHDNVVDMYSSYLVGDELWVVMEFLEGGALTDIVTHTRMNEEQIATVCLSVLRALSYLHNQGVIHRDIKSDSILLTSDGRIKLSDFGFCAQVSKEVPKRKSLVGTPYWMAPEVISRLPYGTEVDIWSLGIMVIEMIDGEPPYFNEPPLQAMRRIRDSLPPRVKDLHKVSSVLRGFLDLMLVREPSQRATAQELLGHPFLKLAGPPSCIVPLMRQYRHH
Sequence of Aurora B (Q96GD4 whole entry): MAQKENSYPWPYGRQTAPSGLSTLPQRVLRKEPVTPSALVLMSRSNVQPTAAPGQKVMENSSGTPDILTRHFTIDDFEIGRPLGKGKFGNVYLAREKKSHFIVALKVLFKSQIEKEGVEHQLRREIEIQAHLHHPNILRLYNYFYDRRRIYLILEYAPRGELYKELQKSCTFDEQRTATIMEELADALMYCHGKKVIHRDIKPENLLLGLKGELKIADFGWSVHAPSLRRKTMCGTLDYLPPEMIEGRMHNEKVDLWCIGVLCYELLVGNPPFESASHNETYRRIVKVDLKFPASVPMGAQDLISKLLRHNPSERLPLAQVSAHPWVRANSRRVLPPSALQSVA

Compound: COc1ccc2sc(-c3cncc(N)c3)nc2c1 [compound 1, 5-(5-Methoxybenzo[d]thiazol-2-yl)pyridin-3-amine]
- remaining activity at 1 µM (Aurora B; Aurora B, 1 μM): 107%
- remaining activity at 100 µM (Aurora B; Aurora B, 100 μM): 21%
- remaining activity at 1 µM (MARK2; MARK2, 1 μM): 112%
- remaining activity at 100 µM (MARK2; MARK2, 100 μM): 62%
- remaining activity at 1 µM (PAK5; PAK5, 1 μM): 111%
- remaining activity at 100 µM (PAK5; PAK5, 100 μM): 70%
- remaining activity at 1 µM (AMPK (hum); AMPK (hum), 1 μM): 107%
- remaining activity at 100 µM (AMPK (hum); AMPK (hum), 100 μM): 46%
- remaining activity at 1 µM (SGK1; SGK1, 1 μM): 99%
- remaining activity at 100 µM (SGK1; SGK1, 100 μM): 62%
- Remaining protein kinase activity (ULK1; 1 μM): 116%
- Remaining protein kinase activity (ULK1; 100 μM): 77%
- remaining activity at 1 µM (CDK9-Cyclin T1; CDK9-Cyclin T1, 1 μM): 113%
- remaining activity at 100 µM (CDK9-Cyclin T1; CDK9-Cyclin T1, 100 μM): 83%
- Remaining protein kinase activity (TTBK2; 1 μM): 123%
- Remaining protein kinase activity (TTBK2; 100 μM): 103%
- remaining activity at 1 µM (VEG-FR; VEG-FR, 1 μM): 110%
- remaining activity at 100 µM (VEG-FR; VEG-FR, 100 μM): 20%
- Remaining protein kinase activity (CSK; 1 μM): 116%
- Remaining protein kinase activity (CSK; 100 μM): 78%
- remaining activity at 1 µM (MNK2; MNK2, 1 μM): 90%
- remaining activity at 100 µM (MNK2; MNK2, 100 μM): 27%

Compound: COc1ccc2sc(-c3cncc(NC(C)=O)c3)nc2c1 [PST-001, N-(5-(5-Methoxybenzo[d]thiazol-2-yl)pyridin-3-yl)acetamide]
- remaining activity at 1 µM (Aurora B): 106%
- remaining activity at 100 µM (Aurora B): 24%
- remaining activity at 1 µM (MARK2): 116%
- remaining activity at 100 µM (MARK2): 106%
- remaining activity at 1 µM (PAK5): 113%
- remaining activity at 100 µM (PAK5): 129%
- remaining activity at 1 µM (AMPK (hum)): 99%
- remaining activity at 100 µM (AMPK (hum)): 69%
- remaining activity at 1 µM (SGK1): 102%
- remaining activity at 100 µM (SGK1): 82%
- Remaining protein kinase activity (ULK1; 1 μM): 129%
- Remaining protein kinase activity (ULK1; 100 μM): 120%
- remaining activity at 1 µM (CDK9-Cyclin T1): 122%
- remaining activity at 100 µM (CDK9-Cyclin T1): 120%
- Remaining protein kinase activity (TTBK2; 1 μM): 119%
- Remaining protein kinase activity (TTBK2; 100 μM): 117%
- remaining activity at 1 µM (VEG-FR): 111%
- remaining activity at 100 µM (VEG-FR): 41%
- Remaining protein kinase activity (CSK; 1 μM): 121%
- Remaining protein kinase activity (CSK; 100 μM): 126%
- remaining activity at 1 µM (MNK2): 106%
- remaining activity at 100 µM (MNK2): 66%

From article PMC8617627, “Novel DYRK1A Inhibitor Rescues Learning and Memory Deficits in a Mouse Model of Down Syndrome” (Pharmaceuticals, 2021)
